US6900239B2, “Tumor chemopotentiation using isocoumarin derivatives” (ILWZ ILEX Products, Inc., priority 2000, dated 2005)

Legend:
PC6 = test: Cell growth (WST-1) in the presence of NM-3; assay type: cell-based; details: Homo sapiens, PC-6, 72 h; 3 days culture with NM-3
Ehrlich carcinoma = test: Ehrlich solid tumor growth; assay type: in vivo, ICR mice; details: for Inhibition (%): days 1~14; for Mean Tumor Weight (mg ± S.D.): days 1~14, measured day 15
Description: To determine the antitumor effect of NM-3 on growth of a solid tumor in vivo, 4×10^6 Ehrlich carcinoma cells per mouse were subcutaneously transplanted into ICR mice (female, 6 weeks old) in the inguinal area. NM-3 was continuously administered via the oral route for 14 days. Tumor weights were then measured on day 15 (Table 2). […] Thus, NM-3 treatment is associated with a significant reduction in the growth of solid tumors.

Structure (SMILES): COc1cc(O)c2c(=O)oc(C(C)C(=O)O)cc2c1 (stereo not drawn) [NM-3, 2-(8-hydroxy-6-methoxy-1-oxo-1H-2-benzopyran-3-yl) propionic acid]
- IC50 (PC6): > 500 µg/mL
- Inhibition (%) (Ehrlich carcinoma; 0.63 mg/kg p.o.): 33.1%
- Inhibition (%) (Ehrlich carcinoma; 1.25 mg/kg p.o.): 59.5%
- Mean Tumor Weight (mg ± S.D.) (Ehrlich carcinoma; 1.25 mg/kg p.o.): 497.7 ± 265.5 mg
- Inhibition (%) (Ehrlich carcinoma; 2.5 mg/kg p.o.): 57.7%
- Mean Tumor Weight (mg ± S.D.) (Ehrlich carcinoma; 2.5 mg/kg p.o.): 519.5 ± 319.3 mg
- Inhibition (%) (Ehrlich carcinoma; 5 mg/kg p.o.): 52.0%
- Mean Tumor Weight (mg ± S.D.) (Ehrlich carcinoma; 5 mg/kg p.o.): 589.7 ± 338.3 mg
- Tumor size versus control (Ehrlich carcinoma; 1.25 to 5 mg/kg p.o.): significantly reduced in size
